Patent publication US20160089377A1, “THERAPEUTIC TARGETING OF THE MTOR PATHWAY IN NEURODEVELOPMENTAL AND NEUROPSYCHIATRIC DISEASE” (THE TRUSTEES OF COLUMBIA UNIVERISTY IN THE CITY OF NEW YORK, priority 2013, published 2016)
Entries after “also recorded” stand apart in the source; their conditions may differ.

What was measured:
Type in all cases: in vivo
[1] = tested on: layer V pyramidal neurons; test: Excitation-inhibition correlation, whole-cell recordings from slices of treated adult mice
Protocol: (§1) All mice were treated with either WYE125132 or vehicle for a period of 2 weeks after which the animals were euthanized and thalamocortical slices were prepared. Briefly, animals were anesthetized, decapitated and the brain quickly placed into ice-cold dissection buffer containing (in mM): 75 sucrose, 87 NaCl, 2.5 KCl, 1.25 NaH2PO4, 0.5 CaCl2, 7 MgCl2 6H2O, 25 NaHCO3, 10 dextrose, bubbled with 95% O2/5% CO2 (pH 7.4). Slices (400 μm) were prepared with a vibratome (Leica, VT1200S), placed in 33-35° C. for artificial cerebrospinal fluid (ACSF, in mM: 124 NaCl, 2.5 KCl, 1.25 NaH2PO4, 2.5 CaCl2, 1.5 MgSO4 7H2O, 26 NaHCO3, and 10 dextrose) for <30 min; then returned to room temperature >1 hr before use. Slices were then transferred to the recording chamber and perfused (2.0-2.5 ml min-1) with oxygenated ACSF at 33-35° C. and given 30 min to stabilize. Somatic whole-cell recordings were made from layer 5 pyramidal cells in voltage and current clamp mode with a Multiclamp 700B amplifier (Molecular Devices). Selection was based on morphology and electrophysiological criteria. Patch pipettes (3-8MΩ) contained a current clamp solution. Data were filtered at 2 kHz, digitized at 10 kHz and analyzed with Clampfit. Cells were excluded from analysis if Ri or Rs changed by >25% over the course of the recording. Excitatory post-synaptic currents or potentials (EPSCs/Ps) were evoked by extracellular stimulation (0.01-1 ms, 1-10V) with a 4×1 array of electrodes placed in layer 4, and straddling the patched layer 5 neuron. Across mice we compared spontaneous and evoked inhibitory responses by clamping the membrane potential of the cell to sub-threshold levels. Furthermore, we compared inhibition generated by each stimulation electrode, to the corresponding amount of excitation when the cell was held at −80 mV. Lastly, we tested Spike-Timing Dependent Plasticity (STDP).
(§2) euthanized. For the electrophysiology and western blot rescue experiments, adult mice were gavaged for 14 consecutive days after which they were euthanized.
Whole cell recordings were made from layer V pyramidal cells of the temporal cortex. Focal extracellular stimulation was applied and excitatory and inhibitory currents were measured across various stimulation intensities to assess E:I balance. […]
recorded cell. […] We assessed this relation over multiple inputs onto the recorded postsynaptic neuron from different regions of the cortical brain slice, by systematically varying the intensity of extracellular stimulation, such that higher intensities evoke responses from larger subpopulations of presynaptic inputs (House et al., 2011). […]

[2] = tested on: phosphorylated ribosomal protein S6 (pS6); test: Immunoblot of phosphorylated S6 in cortex after WYE125132 treatment; conditions: cortex of Cntnap2-/- and Cntnap2+/- mice, 14 consecutive days gavage 10 mg/kg
Protocol: (§3) Cntnap2 mutant and WT mice were obtained from heterozygous crossings and were born with the expected Mendelian frequencies. The three obtained genotypes were housed together. Mice were treated with p.o. gavaging once per day with either WYE125132 (10 mg/kg) or vehicle. All procedures involving animals were performed in accordance with the Columbia University/New York State Psychiatric Institute animal research committee.
as §2
Western blot analysis of mouse brain tissue and immunocytochemistry in human brain tissue was performed using standard methods.
We examined whether we can reverse the dramatic enlargement of the pyramidal cell somata by targeting the mTOR overactivation. To this end, mice were gavaged daily with WYE125132 from P12 until P33-36 after which their brains were harvested for further analysis.

Cntnap2 mutant mice = test: Social interaction test (10-minute interval) and grooming
Protocol: as §3
WYE125132 (Chemscene) was administered by a daily p.o. gavaging in a volume of 10 ml/kg. For all behavioral experiments, dams were treated from PO to P12 after which individual pups were gavaged on a daily basis going forward. Mice also received drug treatment on the days of testing, at least 1 hour prior the experiment. For the two-photon and cell size quantitation studies, mice were gavaged from P12 to p35, after they were
Mice were marked with ear tagging. Experimenters were blinded to the genotype during testing. Behavioral tests were performed in the New York State Psychiatric Institute behavioral test core facility.
Detailed measurements of interaction between pairs of mice placed together in standard cages provide insights into reciprocal social interactions (Silverman et al., 2010). We examined (i) whether juvenile Cntnap2 mutant mice display decreased social interaction over a 10-minute interval and (ii) whether mutant mice have reduced tendency to approach novel social stimuli, as evidenced by social inhibition in the first minute of the tested interval (Curley et al., 2009). The first minute of this social interaction paradigm represents the phase when preference for social novelty is normally established. There were significant differences between genotypes in the amount of time spent on social investigation of the stimulus animal both in the first minute of the test (One-Way ANOVA F2,38=5.01, P<0.05; FIG. 15A) as well as over the entire 10-minute test (F2,38=3.27, P<0.05; FIG. 15A). Both Cntnap2^+/− and Cntnap2^−/− mice investigated the stimulus mouse for less time than their wild-type (WT) littermates (Dunnett post-hoc tests, all P<0.05).
Mutant mice were treated with WYE125132 or vehicle by daily gavaging.

[3] = tested on: layer V pyramidal neurons; test: Spike-timing-dependent LTP, whole-cell recordings from slices of treated adult mice
Protocol: as §1, §2
Whole cell recordings were made from layer V pyramidal cells of the temporal cortex. Focal extracellular stimulation was applied and excitatory and inhibitory currents were measured across various stimulation intensities to assess E:I balance. For plasticity experiments, extracellular stimulation was paired with postsynaptic action potentials (elicited by current injection via the recording electrode) less than 10 ms after the onset of the EPSP 60 times at 0.1 hz. Baseline strength was compared to synaptic strength 6-15 mins after spike pairing.
We investigated whether we could reverse the impairment in neuronal network activity and plasticity by targeting the overactivation of the mTOR pathway with WYE125132. […]

[4] = Caspr2-/- / Cntnap2 mutant mice treated with WYE125132 for 2 weeks
[5] = WT littermates treated with WYE125132 for 2 weeks

## CNC(=O)Nc1ccc(-c2nc(N3CC4CCC(C3)O4)c3cnn(C4CCC5(CC4)OCCO5)c3n2)cc1 [WYE125132]
[1]; [4]
  correlation between excitation and inhibition (in words): high correlation between excitation and inhibition
[1]; [5]
  correlation between excitation and inhibition (in words): high correlation between excitation and inhibition
[1]; WYE125132-treated Cntnap2-/- mouse, single representative recording
  linear correlation coefficient r between excitation and inhibition (representative recording): 0.72
[1]; WYE125132-treated Cntnap2-/- mutant mice, 14 days gavage, n=12, error s.e.m.
  linear correlation coefficient r between excitation and inhibition (summary): 0.43±0.08
[2]
  phosphorylation of S6 (Phospho-S6: S6): reverses phosphorylation of S6 to levels observed in WT littermates; also recorded: completely reversed
Cntnap2 mutant mice; Cntnap2+/- mice, daily gavage, P<0.05
  number (total frequency) of social interactions over the whole 10-minute interval: rescued; also recorded: corrects
Cntnap2 mutant mice; Cntnap2+/- mice, daily gavage, versus vehicle, P<0.01
  social interaction deficits in the first minute of testing: reversal of the social interaction deficits; also recorded: corrects the social interaction deficits
Cntnap2 mutant mice; Cntnap2+/- mutant mice, WYE125132 versus vehicle, P<0.05
  maximum grooming bout duration: increased significantly
Cntnap2 mutant mice; Cntnap2 mutant mice
  time spent sniffing the stimulus mouse in the very first part of the test: increases the time
Cntnap2 mutant mice; WT littermates
  time spent sniffing the stimulus mouse in the very first part of the test: no such effect
[3]; [4]
  LTP induction (in words): robust LTP; also recorded: successfully induced LTP
[3]; [5]
  LTP induction (in words): robust LTP
[3]; WYE125132-treated Cntnap2-/- mouse, single example whole-cell recording
  synaptic modification after spike pairing (example recording): 35.1 % increase
[3]; WYE125132-treated Cntnap2-/- mutant mice, n=8, 6-15 min after pairing, error s.e.m.
  synaptic modification after spike pairing (LTP summary): 45.4±16.4 % increase
